{"source": "patent US12168010B2", "about": "“Use of co-enzyme antagonists to slow metabolism” (priority 2020, dated 2024)", "key": {"[1]": {"conditions": "rat, in vivo, po", "description": "This means that there is a very efficient cleavage of B-OT into OT, and a high percentage amount of OT is present in the blood. Thus, B-OT is a pharmacokinetically good and orally applicable substance that allows good and efficient delivery of OT. Since OT usually must/should be administered intraperitoneally, the oral administration of B-OT represents an important advantage in comparison. The bioavailability and absorption of B-OT is also more suitable for human therapy due to the more lipophilic basic structure of B-OT compared to OT. Compared to OT, B-OT is thus better, easier and safer to use as a drug."}, "[2]": {"experiment": "Comparison of B-OT amounts per kg body weight in dogs and humans versus rats and mice", "format": "in vivo"}, "[3]": {"tested_on": "SARS-CoV-2", "experiment": "Curative trials: B-OT in addition to standard therapy in patients with covid-19 pneumonia"}, "[4]": {"experiment": "Study in dogs on the conversion of B-OT to OT (toxicokinetics of OT in plasma, tolerability)", "format": "in vivo, dogs (Beagle breed)", "description": "FIG. 1: Change in individual plasma concentrations of OT with time (over 24 hours) in male beagle dogs. The y-axis indicates—the plasma concentration in ng/ml. • On the x-axis the time is indicated in hours (h=hours) • (a) Change in individual plasma concentrations on day 1 after administration of a single dose of B-OT in an amount of 1 mg/kg/day. • The symbols mean: • —⋄—=dog no. 3001 • —□—=dog no. 3002 • (b) Change in individual plasma concentrations on day 1 after administration of a single dose of B-OT in an amount of 0.5 mg/kg/day. • The symbols mean: • —Δ—=dog no. 4001 • —∘—=dog no. 4002 • (c) Change in individual plasma concentrations at day 7 after seven days of administration of single doses of B-OT in an amount of 0.5 mg/kg/day. • The symbols mean: • —Δ—=dog no. 4001 • —∘—=dog no. […] • (d) Change in mean plasma concentrations on day 1 after administration of a single dose of B-OT at 1 mg/kg/day, and on day 1 and day 7 after daily administration of single doses of B-OT in an amount of 0.5 mg/kg/day. • The symbols mean: • —□—=group 3, 1.0 mg/kg/day, day 1 • —Δ—=Group 4, 0.5 mg/kg/day, day 1. • —∘—=group 4, 0.5 mg/kg/day, day 7.\nMale and female dogs (Beagle breed) were administered B-OT (benfo-oxythiamine) orally once daily for periods of one to seven days in amounts of 1 mg/kg/day or 0.5 mg/kg/day.\nThe toxicokinetics of the active metabolite OT (oxythiamine) was determined in plasma samples obtained on the first day “Day 1” and on the seventh day “Day 7” after the start of administration. The measurement results obtained are shown graphically in FIGS. 1 (a) to (d)."}, "[5]": {"experiment": "Change in pulse beat (heart rate) in dogs after administration of B-OT", "format": "in vivo", "conditions": "over 24 hours, B-OT 0.05, 0.15, 0.5 mg/kg/day", "description": "FIG. 2: Graph showing the change in plus beat with time in dogs after administration of different amounts (doses) of B-OT. On the y-axis, the pulse beat (heart rate) is given in beats per minute (bpm). On the x-axis, the time is given in hours. • The symbols mean: • —●=0 mg/kg/day—Benfooxythiamine=0 mg/kg/day—B-OT • —□—=0.05 mg/kg/day—Benfooxythiamine=0.05 mg/kg/day—B-OT • —Δ—=0.15 mg/kg/day—Benfooxythiamine=0.15 mg/kg/day—B-OT • −⋄—=0.5 mg/kg/day—Benfooxythiamine=0.5 mg/kg/day—B-OT\nBy slowing down (throttling) the metabolism, GSSV also causes a reduction in the energy released with it. The body attempts to compensate for the lower energy release by increasing the pulse rate in order to transport more oxygen into the body so that more energy can be released as a result. The increase in the patient's pulse beat is an indication and a suitable parameter that GSSV has inhibited energy release and to what extent. If there is a sharp increase in pulse rate, e.g., in a person a pulse rate above 90, countermeasures may be necessary to increase energy release again."}, "[6]": {"experiment": "In vivo pharmacokinetics: oxythiamine in the brain after B-OT administration"}, "[7]": {"conditions": "all patients with additional B-OT therapy"}}, "note": "“Also recorded” adds a separate entry of the source."}
{"smiles": "C/C(=C(/CCOP(=O)(O)O)SC(=O)c1ccccc1)N(C=O)Cc1cnc(C)[nH]c1=O", "note": "[B-OT, benfo-oxythiamine]", "values": [{"measurement": "B-OT (prodrug form) measurable in the blood", "setting": "[1]", "result": 0, "unit": "%"}, {"measurement": "share of total amount of B-OT administered measurable in the blood in the form of oxythiamine (OT)", "setting": "[1]", "result": 44, "unit": "%"}, {"measurement": "reaction of dogs and humans to B-OT amounts per kg applied to rats and mice", "setting": "[2]; rodent amounts per kilogram body weight used in dogs and humans", "result": "in many cases led to death"}, {"measurement": "dose usable in humans and dogs compared to published amounts used in rats and mice", "setting": "[2]; to avoid serious, sometimes fatal, courses", "result": "approximately two hundredfold lower dose"}, {"measurement": "viral pneumonia infiltrates in lung computed tomography", "setting": "[3]; after 7 days of B-OT therapy versus before", "result": "marked decrease in infiltrates; also recorded: marked decrease of infiltrates; also recorded: significant decrease in the previously pronounced infiltrates"}, {"measurement": "C-reactive Protein (CRP)", "setting": "[3]; [7]", "result": "significant reduction"}, {"measurement": "Interleukin-6 (IL-6)", "setting": "[3]; [7]", "result": "significant reduction"}, {"measurement": "required inpatient stay", "setting": "[3]; compared with the overall collective of more than 700 patients", "result": "on average one week less"}, {"measurement": "side effects attributable to B-OT", "setting": "[3]; four covid-19 pneumonia patients, 6 mg B-OT per day perorally for seven days", "result": "None of the patients showed side effects"}, {"measurement": "need for intensive care", "setting": "[3]; four covid-19 pneumonia patients, 6 mg B-OT per day perorally for seven days plus standard therapy", "result": "none of the four patients required intensive care"}, {"measurement": "need for respiratory support therapy beyond nasal cannula or mask oxygen insufflation", "setting": "[3]; four patients with additional B-OT therapy, versus overall collective of more than 700 patients", "result": "none of the four patients"}, {"measurement": "lung computed tomography at follow-up", "setting": "[3]; patient 2, one month after the end of therapy", "result": "stable findings"}, {"measurement": "behavior and physical condition", "setting": "[4]; dog, in vivo", "result": "No relevant abnormalities"}, {"measurement": "body weight", "setting": "[4]; dog, in vivo", "result": "no significant variations in body weight"}, {"measurement": "systemic exposure to OT / B-OT", "setting": "[4]; dog, in vivo, po", "result": "exposed to the active metabolite OT but not to the preform (prodrug) B-OT"}, {"measurement": "tolerability of treatment", "setting": "[4]; dogs, oral B-OT 1 or 0.5 mg/kg/day, one to seven days", "result": "well tolerated"}, {"measurement": "pulse beat (heart rate)", "setting": "[5]", "result": "significant increase in pulse beat"}]}
{"smiles": "Cc1ncc(C[n+]2csc(CCO)c2C)c(=O)[nH]1", "note": "[OT, oxythiamine]", "values": [{"measurement": "oxythiamine in the brain after B-OT is administered", "setting": "[6]", "result": "present in significant amounts in the brain"}, {"measurement": "time of maximum OT plasma concentration (Tmax) after administration of B-OT", "setting": "[4]; Beagle dogs, oral B-OT, all applied doses", "result": "between one and two hours"}, {"measurement": "systemic exposure to OT / B-OT", "setting": "[4]; dogs treated orally with B-OT", "result": "achieved in all animals"}, {"measurement": "increase in plasma concentrations of oxythiamine (OT) with B-OT dose", "setting": "[4]; dogs, stepwise increase of B-OT dose from 0.2 mg/kg to 1.0 mg/kg", "result": "approximately linearly proportional to the increase in dose"}, {"measurement": "increase in plasma OT based on dose-normalized Cmax and partial AUC", "setting": "[4]; male beagle dogs, oral B-OT single doses, over the range of applied doses", "result": "less than dose-proportional increase"}]}
